Laboratory results reported in patent EP0321849A2, “Method for the enzymatic hydrolysis of alpha-aminoadipinyl monoamino compounds” (HOECHST AKTIENGESELLSCHAFT, priority 1987, dated 1989).

B1: γ-Glutamyltranspeptidase (γ-GTP) (Bacillus subtilis subsp. subtilis str. 168) (protein)
chain 1: DEYKQVDVGKDGMVATAHPLASEIGADVLKKGGNAIDAAVAIQFALNVTEPMMSGIGGGGFMMVYDGKTKDTTIIDSRERAPAGATPDMFLDENGKAIPFSERVTKGTAVGVPGTLKGLEEALDKWGTRSMKQLITPSIKLAEKGFPIDSVLAEAISDYQEKLSRTAAKDVFLPNGEPLKEGDTLIQKDLAKTFKLIRSKGTDAFYKGKFAKTLSDTVQDFGGSMTEKDLENYDITIDEPIWGDYQGYQIATTPPPSSGGIFLLQMLKILDHFNLSQYDVRSWEKYQLLAETMHLSYADRASYAGDPEFVNVPLKGLLHPDYIKERQQLINLDQVNKKPKAGDPWKYQEGSANYKQVEQPKDKVEGQ
chain 2: TTHFTVADRWGNVVSYTTTIEQLFGTGIMVPDYGVILNNELTDFDAIPGGANEVQPNKRPLSSMTPTILFKDDKPVLTVGSPGGATIISSVLQTILYHIEYGMELKAAVEEPRIYTNSMSSYRYEDGVPKDVLSKLNGMGHKFGTSPVDIGNVQSISIDHENGTFKGVADSSRNGAAIGINLKRK
notes: Das Enzym kommt in Mikroorganismen periplasmatisch und extrazellulär vor; endogenous in cells; host or cells: Bacteria cultured in nutrient medium (genera Pseudomonas, Proteus, Arthrobacter, Bacillus); preferred Bac. subtilis IFO 3025

What was measured:
γ-GTP [1] = target: T1, γ-GTP (Bacillus subtilis, UniProt P54422); assay: Enzymatic hydrolysis of α-aminoadipinyl cephalosporins by γ-GTP enzyme concentrate (preparative conversion); assay type: biochemical, Bac. subtilis IFO 3025; parameters: Das so gewonnene Kulturfiltrat enthält 1350 U γ-GTP-Aktivität; endogenous in cells; host or cells: Bacillus subtilis IFO 3025 (natural producer); Culture filtrate, ammonium sulfate precipitation, DEAE-cellulose
Description: Analog Beispiel 1 wird eine Vorkultur mit Bac. subtilis IFO 3025 angezogen. 50 ml dieser Kultur dienen als Inokulum für 2 l Hauptkulturlösung in einem 5 l-Fermenter. Die Anzucht des Stammes erfolgt bei 34°C und einem Sauerstoffpartialdruck von 70 %. Die Bildung der γ-GTP wird photometrisch verfolgt und die Kultur bei maximalem Enzymtiter abgeerntet. Unter den gegebenen Bedingungen wird ein γ-GTP-Titer von 150 mU/ml Kulturlösung erreicht.
9 l Kulturlösung werden mittels Cross-Flow-Filtration (Ausschlußgrenze 300 000 Dalton) in Kulturfiltrat und Zellmasse getrennt. Das so gewonnene Kulturfiltrat enthält 1350 U γ-GTP-Aktivität.
Durch Zugabe von Ammoniumsulfat ad 70 % d. S. wird das Enzym gefällt und in einem 1/10 des Volumens wieder aufgenommen. Nach Dialyse gegen 20 mM Tris, pH 8,0, wird über eine DEAE-Cellulose Säule (DE 52, Whatman) das Enzym weiter gereinigt. Die aktiven Eluate werden vereinigt und konzentriert. Ein so gewonnenes γ-GTP-Präparat (mit ca. 25 U γ-GTP/ml) wird für die Umsetzungen verwendet.
Für eine präparative Umsetzung von Desacetyl-CPC wird folgender Ansatz gewählt: 100 µl Enzymkonzentrat, hergestellt nach Beispiel 3, und 100 µl 40 mM Desacetyl-CPC, gelöst in 20 mM Kaliumphosphatpuffer, pH 7,3 werden bei einer Temperatur von 33°C inkubiert. […]

γ-GTP [2] = target: T1, γ-GTP; assay: Inhibition of γ-GTP by inhibitors (irreversible / reversible); assay type: biochemical; parameters: Das Enzym kommt in Mikroorganismen periplasmatisch und extrazellulär vor; endogenous in cells; host or cells: Bacteria cultured in nutrient medium (genera Pseudomonas, Proteus, Arthrobacter, Bacillus); preferred Bac. subtilis IFO 3025; conditions: in the presence of the substance; kind of inhibition (irreversible or reversible)
[3] = substrate: N[C@@H](CCC(=O)Nc1ccc([N+](=O)[O-])cc1)C(=O)O; assay: Km determination of γ-GTP with L-γ-Glutamylparanitroanilid as substrate; assay type: biochemical; conditions: other: substrate of γ-GTP, pH 8, 37.0 °C

Molecule | Hemmung der γ-GTP (γ-GTP [2]) | further results
CC(=O)OCC1=C(C(=O)O)N2C(=O)[C@@H](NC(=O)CCC[C@@H](N)C(=O)O)[C@H]2SC1 [CPC, Cephalosporin C] | – | 7-Aminocephalosporansäure released (γ-GTP [1]; incubation conditions as in Beispiel 4 (pH 7,3, 33°C)): 3%
[Hg] [Quecksilber] | reversible Hemmung | –
N[C@H](CCCC(=O)N[C@@H]1C(=O)N2C(C(=O)O)=C(CO)CS[C@H]12)C(=O)O [Desacetyl-CPC] | – | Desacetyl-7-Aminocephalosporansäure formed (γ-GTP [1]; 100 µl enzyme concentrate + 100 µl 40 mM substrate in 20 mM potassium phosphate buffer pH 7,3, 33°C): ≤ 16%
[N-]=[N+]=CC(=O)OC[C@H](N)C(=O)O [Azaserin] | irreversibel gehemmt | –
[Cu] [Kupfer] | reversible Hemmung | –
NC(=O)CI [Jodacetamid] | irreversibel gehemmt | –
CC(=O)OCC1=C(C(=O)O)N2C(=O)[C@@H](N)[C@H]2SC1 [7-Aminocephalosporansäure] | reversible Hemmung | –
B1 | – | Km [3]: 17,8 µM
